Experiments:
JAK2 = JAK2 (Homo sapiens (Human), UniProt O60674); test: Jak Biochemical HTRF Assay, JAK2; conditions: HTRF biochemical assay, GST-tagged catalytic domain; top concentration tested […]
Excerpt: (§1) Jak Biochemical HTRF Assay Protocol
(§2) Subsequent reagent additions employed an Agilent Bravo.

JAK1 = JAK1 (Homo sapiens (Human), UniProt P23458); test: Jak Biochemical HTRF Assay, JAK1; conditions: HTRF biochemical assay, GST-tagged catalytic domain; top concentration tested […]; read-out: JAK1 IC50
Excerpt: as §1, §2

Sequence of JAK2 (O60674 849-1124): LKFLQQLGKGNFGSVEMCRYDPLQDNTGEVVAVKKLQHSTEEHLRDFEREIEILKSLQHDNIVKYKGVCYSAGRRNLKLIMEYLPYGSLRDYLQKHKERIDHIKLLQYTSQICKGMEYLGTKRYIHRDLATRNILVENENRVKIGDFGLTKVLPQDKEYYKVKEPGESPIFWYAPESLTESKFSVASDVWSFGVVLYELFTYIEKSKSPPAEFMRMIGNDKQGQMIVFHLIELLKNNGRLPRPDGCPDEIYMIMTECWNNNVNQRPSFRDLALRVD
Sequence of JAK1 (P23458 875-1153): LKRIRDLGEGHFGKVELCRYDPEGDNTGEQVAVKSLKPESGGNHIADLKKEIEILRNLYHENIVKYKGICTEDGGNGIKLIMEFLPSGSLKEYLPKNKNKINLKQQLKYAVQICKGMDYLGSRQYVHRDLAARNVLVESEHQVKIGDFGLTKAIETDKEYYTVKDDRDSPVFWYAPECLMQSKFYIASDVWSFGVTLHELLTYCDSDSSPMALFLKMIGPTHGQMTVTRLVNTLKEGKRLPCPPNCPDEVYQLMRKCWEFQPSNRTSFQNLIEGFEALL

| IC50 (JAK2) [nM] | IC50 (JAK1) [nM] | Compound |
| --- | --- | --- |
| 0.2 | 0.05 | CC(C)(C)OC(=O)N1CC[C@](CC#N)(n2cc(C(N)=O)c(Nc3ccc(F)cc3)n2)[C@H](F)C1 (racemic) [Example 6-4, tert-butyl (3S,4S and 3R,4R)-4-{4-carbamoyl-3-[(4-fluorophenyl)amino]-1H-pyrazol-1-yl}-4-(cyanomethyl)-3-fluoropiperidine-1-carboxylate] |
| 267 | 12 | CC(C)(C)OC(=O)NC1CCC(CC#N)(n2cc(C(N)=O)c(Nc3ccccc3)n2)CC1 (single isomer, unassigned) [Example 2-19, (1s,3s or 1r,3r) tert-butyl {4-[4-carbamoyl-3-(phenylamino)-1H-pyrazol-1-yl]-4-(cyanomethyl)cyclohexyl}carbamate] |
| 32 | 2 | CC(C)(C)OC(=O)N1CC[C@@](CC#N)(n2cc(C(N)=O)c(Nc3ccc(F)cc3)n2)[C@H](F)C1 (single isomer, unassigned) [Example 47-3, tert-butyl (3R,4S or 3S,4R)-4-{4-carbamoyl-3-[(4-fluorophenyl)amino]-1H-pyrazol-1-yl}-4-(cyanomethyl)-3-fluoropiperidine-1-carboxylate] |
| 83 | 2 | CC(C)(C)OC(=O)N1CC[C@](CC#N)(n2cc(C(N)=O)c(Nc3ccc(F)cc3)n2)[C@@H](F)C1 (single isomer, unassigned) [Example 47-4, tert-butyl (3S,4R or 3R,4S)-4-{4-carbamoyl-3-[(4-fluorophenyl)amino]-1H-pyrazol-1-yl}-4-(cyanomethyl)-3-fluoropiperidine-1-carboxylate] |
| 27 | 2 | CC(C)(C)OC(=O)N1CCC(CC#N)(n2cc(C(N)=O)c(Nc3ccccc3)n2)C1 (stereo not shown) [Example 2-17, tert-butyl 3-[4-carbamoyl-3-(phenylamino)-1H-pyrazol-1-yl]-3-(cyanomethyl)pyrrolidine-1-carboxylate] |
| 241 | 33 | N#CCC1(n2cc(C(N)=O)c(Nc3ccccc3)n2)COC1 [Example 2-20, 1-[3-(cyanomethyl)oxetan-3-yl]-3-(phenylamino)-1H-pyrazole-4-carboxamide] |
| 405 | 31 | N#CC[C@]1(n2cc(C(N)=O)c(Nc3ccccc3)n2)C[C@@H](C#N)C1 [Example 2-21, 1-((1s,3s)-3-cyano-1-(cyanomethyl)cyclobutyl)-3-(phenylamino)-1H-pyrazole-4-carboxamide] |
| 127 | 13 | CS(=O)(=O)c1ccc(Nc2nn([C@]3(CC#N)C[C@@H](C#N)C3)cc2C(N)=O)cc1 [Example 2-22, 1-((1r,3r)-3-cyano-1-(cyanomethyl)cyclobutyl)-3-((4-(methylsulfonyl)phenyl)amino)-1H-pyrazole-4-carboxamide] |
| 1480 | 198 | CC(C)(C)OC(=O)N1CC2(C1)CC(CC#N)(n1cc(C(N)=O)c(Nc3ccccc3)n1)C2 [Example 2-23, tert-butyl 6-[4-carbamoyl-3-(phenylamino)-1H-pyrazol-1-yl]-6-(cyanomethyl)-2-azaspiro[3.3]heptane-2-carboxylate] |
| 154 | 4 | COc1ccc(N2CCC(CC#N)(n3cc(C(N)=O)c(Nc4ccc(F)cc4)n3)CC2)cc1OC [Example 3-1, 1-[4-(Cyanomethyl)-1-(3,4-dimethoxyphenyl)piperidin-4-yl]-3-[(4-fluorophenyl)amino]-1H-pyrazole-4-carboxamide] |
| 488 | 5 | N#CCC1(n2cc(C(N)=O)c(Nc3ccc(F)cc3)n2)CCN(c2ccnc3ccccc23)CC1 [Example 3-3, 1-[4-(cyanomethyl)-1-quinolin-4-ylpiperidin-4-yl]-3-[(4-fluorophenyl)amino]-1H-pyrazole-4-carboxamide] |
| 174 | 8 | Cc1cc(N2CCC(CC#N)(n3cc(C(N)=O)c(Nc4ccc(F)cc4)n3)CC2)ccn1 [Example 3-4, 1-[4-(cyanomethyl)-1-(2-methylpyridin-4-yl)piperidin-4-yl]-3-[(4-fluorophenyl)amino]-1H-pyrazole-4-carboxamide] |
| 4 | 0.2 | N#CCC1(n2cc(C(N)=O)c(Nc3ccc(F)cc3)n2)CCN(c2cncc(F)c2)CC1 [Example 3-5, 1-[4-(cyanomethyl)-1-(5-fluoropyridin-3-yl)piperidin-4-yl]-3-[(4-fluorophenyl)amino]-1H-pyrazole-4-carboxamide] |
| 5 | 0.2 | COc1cc(N2CCC(CC#N)(n3cc(C(N)=O)c(Nc4ccc(F)cc4)n3)CC2)ccn1 [Example 3-6, 1-[4-(cyanomethyl)-1-(2-methoxypyridin-4-yl)piperidin-4-yl]-3-[(4-fluorophenyl)amino]-1H-pyrazole-4-carboxamide] |
| 54 | 1 | N#CCC1(n2cc(C(N)=O)c(Nc3ccc(F)cc3)n2)CCN(c2cncc(C(F)(F)F)c2)CC1 [Example 3-8, 1-{4-(cyanomethyl)-1-[5-(trifluoromethyl)pyridin-3-yl]piperidin-4-yl}-3-[(4-fluorophenyl)amino]-1H-pyrazole-4-carboxamide] |

The remaining lines, values behind:

| Compound | IC50 (JAK2) [nM] | IC50 (JAK1) [nM] |
| --- | --- | --- |
| CNC(=O)c1cn(C2(CC#N)CCN(C(=O)OC(C)(C)C)CC2)nc1Nc1ccccc1 [Example 1, tert-Butyl 4-(cyanomethyl)-4-[4-(methylcarbamoyl)-3-(phenylamino)-1H-pyrazol-1-yl]piperidine-1-carboxylate] | 1480 | 67 |
| CC(C)(C)OC(=O)N1CCC(CC#N)(n2cc(C(N)=O)c(Nc3ccccc3)n2)CC1 [Example 2-1, tert-Butyl 4-[4-carbamoyl-3-(phenylamino)-1H-pyrazol-1-yl]-4-(cyanomethyl)piperidine-1-carboxylate] | 27 | 1 |
| CC(C)(C)OC(=O)N1CCC(CC#N)(n2cc(C(N)=O)c(Nc3ccc(Br)cc3)n2)CC1 [Example 2-2, tert-butyl 4-{3-[(4-bromophenyl)amino]-4-carbamoyl-1H-pyrazol-1-yl}-4-(cyanomethyl)piperidine-1-carboxylate] | 23 | 0.5 |
| CC(C)(C)OC(=O)N1CC(CC#N)(n2cc(C(N)=O)c(Nc3ccccc3)n2)C1 [Example 2-3, tert-butyl 3-[4-carbamoyl-3-(phenylamino)-1H-pyrazol-1-yl]-3-(cyanomethyl)azetidine-1-carboxylate] | 57 | 8 |
| CC(C)(C)OC(=O)N1CCC(CC#N)(n2cc(C(N)=O)c(Nc3cccc(Cn4nnc5ccccc54)c3)n2)CC1 [Example 2-4, tert-butyl 4-(3-{[3-(1H-benzotriazol-1-ylmethyl)phenyl]amino}-4-carbamoyl-1H-pyrazol-1-yl)-4-(cyanomethyl)piperidine-1-carboxylate] | 18 | 0.5 |
| CC(C)(C)OC(=O)N1CC(CC#N)(n2cc(C(N)=O)c(Nc3ccc(S(C)(=O)=O)cc3)n2)C1 [Example 2-5, tert-butyl 3-(4-carbamoyl-3-{[4-(methylsulfonyl)phenyl]amino}-1H-pyrazol-1-yl)-3-(cyanomethyl)azetidine-1-carboxylate] | 7 | 0.6 |
| CC(C)(C)OC(=O)N1CCC(CC#N)(n2cc(C(N)=O)c(Nc3ccc(C(=O)N4CCS(=O)(=O)CC4)cc3)n2)CC1 [Example 2-6, tert-butyl 4-[4-carbamoyl-3-({4-[(1,1-dioxidothiomorpholin-4-yl)carbonyl]phenyl}amino)-1H-pyrazol-1-yl]-4-(cyanomethyl)piperidine-1-carboxylate] | 1 | 0.5 |
| CC(C)(C)OC(=O)N1CCC(CC#N)(n2cc(C(N)=O)c(Nc3ccncc3)n2)CC1 [Example 2-7, tert-butyl 4-[4-carbamoyl-3-(pyridin-4-ylamino)-1H-pyrazol-1-yl]-4-(cyanomethyl)piperidine-1-carboxylate] | 10 | 0.3 |
| CC(C)(C)OC(=O)N1CC(CC#N)(n2cc(C(N)=O)c(Nc3ccc(C(=O)N4CCS(=O)(=O)CC4)cc3)n2)C1 [Example 2-8, tert-butyl 3-[4-carbamoyl-3-({4-[(1,1-dioxidothiomorpholin-4-yl)carbonyl]phenyl}amino)-1H-pyrazol-1-yl]-3-(cyanomethyl)azetidine-1-carboxylate] | 5 | 2 |
| CCS(=O)(=O)N1CC(CC#N)(n2cc(C(N)=O)c(Nc3ccccc3)n2)C1 [Example 2-12, 1-[3-(cyanomethyl)-1-(ethylsulfonyl)azetidin-3-yl]-3-(phenylamino)-1H-pyrazole-4-carboxamide] | 404 | 115 |
| CCS(=O)(=O)N1CC(CC#N)(n2cc(C(N)=O)c(Nc3ccc(C(=O)N4CCS(=O)(=O)CC4)cc3)n2)C1 [Example 2-13, 1-[3-(cyanomethyl)-1-(ethylsulfonyl)azetidin-3-yl]-3-({4-[(1,1-dioxidothiomorpholin-4-yl)carbonyl]phenyl}amino)-1H-pyrazole-4-carboxamide] | 38 | 27 |
| CS(=O)(=O)c1ccc(Nc2nn(C3(CC#N)CCCCC3)cc2C(N)=O)cc1 [Example 2-14, 1-[1-(cyanomethyl)cyclohexyl]-3-{[4-(methylsulfonyl)phenyl]amino}-1H-pyrazole-4-carboxamide] | 193 | 20 |
| N#CCC1(n2cc(C(N)=O)c(Nc3ccccc3)n2)CCCCC1 [Example 2-15, 1-[1-(cyanomethyl)cyclohexyl]-3-(phenylamino)-1H-pyrazole-4-carboxamide] | 92 | 10 |
| CC(C)(C)OC(=O)N1CCC(CC#N)(n2cc(C(N)=O)c(Nc3ccc(S(C)(=O)=O)cc3)n2)C1 (stereo not shown) [Example 2-16, tert-butyl 3-(4-carbamoyl-3-{[4-(methylsulfonyl)phenyl]amino}-1H-pyrazol-1-yl)-3-(cyanomethyl)pyrrolidine-1-carboxylate] | 2 | 0.2 |

Reference: patent US9328099B2, “Cyanomethylpyrazole carboxamides as janus kinase inhibitors” (Merck Sharp & Dohme Corp., priority 2011, dated 2016)
